Assays:
Type in all cases: cell-based, human
LOX IMVI [1] = test: NCI-60 five-dose assay (melanoma); details: 48 h, SRB; for GI50 / LC50 (concentration killing 50% of cells): Homo sapiens
CCRF-CEM = test: NCI-60 five-dose assay (leukemia); details: 48 h, SRB; for GI50 / LC50 (concentration killing 50% of cells): Homo sapiens
SK-OV-3 = test: NCI-60 five-dose assay (ovarian cancer); details: 48 h, SRB; for GI50 / LC50 (50% net cell kill): Homo sapiens
A549/ATCC = test: NCI-60 five-dose assay (non-small cell lung cancer); details: 48 h, SRB; for GI50 / CC50: Homo sapiens; for CC50: read-out: LC50 (the source's name)
HS 578T = test: NCI-60 five-dose assay (breast cancer); details: 48 h, SRB; for GI50 / CC50: Homo sapiens; for CC50: read-out: LC50 (the source's name)
HOP-62 = test: NCI-60 five-dose assay (non-small cell lung cancer); details: 48 h, SRB; for GI50 / LC50 (concentration killing 50% of cells): Homo sapiens
SNB-75 = test: NCI-60 five-dose assay (CNS cancer); details: 48 h, SRB; for GI50 / LC50 (50% lethal concentration): Homo sapiens
IGROV1 = test: NCI-60 five-dose assay (ovarian cancer); details: SRB; for TGI: 48 h; for GI50 / LC50: Homo sapiens, IGROV-1, 48 h
TK-10 = test: NCI-60 five-dose assay (renal cancer); details: 48 h, SRB; for GI50 / LC50 (concentration killing 50% of starting cells): Homo sapiens
MCF7 = test: NCI-60 five-dose assay (breast cancer); details: 48 h, SRB
T-47D = test: NCI-60 one-dose screen (breast cancer); details: 10 µM single dose, 48 h
Description: (§1) The obtained quinolinequinones were submitted to NCI, Bethesda, USA, and, as per standard protocol of NCI, all compounds were evaluated for their antiproliferative activity at single-dose assay (10 µM concentration in DMSO) on a panel of 60 cancer cell lines derived from leukemia, non-small-cell lung, colon, CNS, melanoma, ovarian, renal, prostate, and breast, as per protocol. Tested compounds were added to the microtiter culture plates followed by incubation for 48 h at 37 °C. Sulforhodamine B (SRB), a protein-binding dye, is used for endpoint determination. The percent of the growth of the treated cells was determined in comparison to the untreated control cells and the results of each tested compound were reported. Data from one-dose experiments pertain to the percentage growth at 10 μM [16, 17, 18].

MDA-MB-468 = test: NCI-60 one-dose screen (breast cancer); details: 10 µM single dose, 48 h
Description: as §1

BT-549 = test: NCI-60 one-dose screen (breast cancer); details: 10 µM single dose, 48 h
Description: as §1

KM12 = test: NCI-60 five-dose assay (colon cancer); details: 48 h, SRB; for GI50 / CC50: Homo sapiens; for CC50: read-out: LC50 (the source's name)
SR = test: NCI-60 five-dose assay (leukemia); details: 48 h, SRB; for GI50 / CC50: Homo sapiens; for CC50: read-out: LC50 (the source's name)
NCI/ADR-RES = test: NCI-60 five-dose assay (ovarian cancer); details: 48 h, SRB; for GI50 / CC50: Homo sapiens; for CC50: read-out: LC50 (the source's name)
SW-620 = test: NCI-60 five-dose assay (colon cancer); details: 48 h, SRB; for GI50 / LC50: Homo sapiens
OVCAR-8 = test: NCI-60 five-dose assay (ovarian cancer); details: 48 h, SRB; for GI50 / CC50: Homo sapiens; for CC50: read-out: LC50 (the source's name)
RXF 393 = test: NCI-60 five-dose assay (renal cancer); details: 48 h, SRB; for GI50 / LC50: Homo sapiens
NCI-H460 = test: NCI-60 five-dose assay (non-small cell lung cancer); details: 48 h, SRB; for GI50 / CC50: Homo sapiens; for CC50: read-out: LC50 (the source's name)
COLO 205 = test: NCI-60 five-dose assay (colon cancer); details: 48 h, SRB; for GI50 / CC50: Homo sapiens; for CC50: read-out: LC50 (the source's name)
HCC-2998 = test: NCI-60 five-dose assay (colon cancer); details: 48 h, SRB; for GI50 / LC50 (concentration killing 50% of cells): Homo sapiens
A498 = test: NCI-60 five-dose assay (renal cancer); details: 48 h, SRB; for GI50 / LC50: Homo sapiens
OVCAR-4 = test: NCI-60 five-dose assay (ovarian cancer); details: 48 h, SRB; for GI50 / LC50 (concentration killing 50% of cells): Homo sapiens
SN12C = test: NCI-60 five-dose assay (renal cancer); details: 48 h, SRB; for GI50 / LC50 (concentration killing 50% of starting cells): Homo sapiens
SK-MEL-28 [2] = test: NCI-60 five-dose assay (melanoma); details: 48 h, SRB; for GI50 / LC50: Homo sapiens
MDA-MB-231/ATCC = test: NCI-60 five-dose assay (breast cancer); details: 48 h, SRB; for GI50 / LC50 (concentration killing 50% of cells): Homo sapiens
SK-MEL-2 = test: NCI-60 one-dose screen (melanoma); details: 10 µM single dose, 48 h
Description: as §1

MDA-MB-435 = test: NCI-60 one-dose screen (melanoma); details: 10 µM single dose, 48 h
Description: as §1

UACC-257 = test: NCI-60 one-dose screen (melanoma); details: 10 µM single dose, 48 h
Description: as §1

MALME-3M = test: NCI-60 one-dose screen (melanoma); details: 10 µM single dose, 48 h
Description: as §1

SK-MEL-28 [3] = test: NCI-60 one-dose screen (melanoma); details: 10 µM single dose; for GP (growth percentage): 48 h; for inhibition at 10 µM: Homo sapiens
Description: as §1

LOX IMVI [4] = test: NCI-60 one-dose screen (melanoma); details: 10 µM single dose, 48 h
Description: as §1

SK-MEL-5 = test: NCI-60 one-dose screen (melanoma); details: 10 µM single dose, 48 h
Description: as §1

UACC-62 = test: NCI-60 one-dose screen (melanoma); details: 10 µM single dose, 48 h
Description: as §1

## CCOc1ccc(NC2=C(Cl)C(=O)c3nc(C)ccc3C2=O)cc1 [AQQ3]
LOX IMVI [1]
  TGI: 2.33 µM
  GI50: 1.06 µM
  LC50 (concentration killing 50% of cells): 5.14 µM
CCRF-CEM
  TGI: >100 µM
  GI50: 2.11 µM
  LC50 (concentration killing 50% of cells): > 100 µM
SK-OV-3
  TGI: 30.1 µM
  GI50: 11 µM
  LC50 (50% net cell kill): 82.3 µM
A549/ATCC
  TGI: 4.64 µM
  GI50: 2.09 µM
  CC50: 17.5 µM
HS 578T
  TGI: 5.82 µM
  GI50: 2.22 µM
  CC50: > 100 µM
HOP-62
  TGI: 3.23 µM
  GI50: 1.74 µM
  LC50 (concentration killing 50% of cells): 6.01 µM
SNB-75
  TGI: 2.79 µM
  GI50: 1.46 µM
  LC50 (50% lethal concentration): 5.33 µM
IGROV1
  TGI: 2.76 µM
  GI50: 1.36 µM
  LC50: 5.61 µM
TK-10
  TGI: 3.77 µM
  GI50: 2.3 µM
  LC50 (concentration killing 50% of starting cells): 6.18 µM
MCF7
  TGI: 3.82 µM
MCF7; Homo sapiens
  GI50: 1.54 µM
  LC50: 9.44 µM
T-47D
  GP (growth percentage): −43.85%
MDA-MB-468
  GP (growth percentage): −95.15%
BT-549
  GP (growth percentage): 46.48%
KM12
  TGI: 3.07 µM
  GI50: 1.44 µM
  CC50: 6.51 µM
SR
  TGI: >100 µM
  GI50: 1.09 µM
  CC50: > 100 µM
NCI/ADR-RES
  TGI: 4.11 µM
  GI50: 1.7 µM
  CC50: 9.93 µM
SW-620
  TGI: 3.51 µM
  GI50: 1.83 µM
  LC50: 6.73 µM
OVCAR-8
  TGI: 3.01 µM
  GI50: 1.57 µM
  CC50: 5.77 µM
RXF 393
  TGI: 2.96 µM
  GI50: 1.57 µM
  LC50: 5.61 µM
NCI-H460
  TGI: 10.4 µM
  GI50: 3.08 µM
  CC50: 49.7 µM
COLO 205
  TGI: 3.64 µM
  GI50: 1.86 µM
  CC50: 7.12 µM
HCC-2998
  TGI: 3.25 µM
  GI50: 1.76 µM
  LC50 (concentration killing 50% of cells): 6 µM
A498
  TGI: 5.52 µM
  GI50: 1.56 µM
  LC50: 24.4 µM
OVCAR-4
  TGI: 2.37 µM
  GI50: 1.13 µM
  LC50 (concentration killing 50% of cells): 4.97 µM
SN12C
  TGI: 2.99 µM
  GI50: 1.58 µM
  LC50 (concentration killing 50% of starting cells): 5.66 µM
SK-MEL-28 [2]
  TGI: 3.14 µM
  GI50: 1.73 µM
  LC50: 5.7 µM
MDA-MB-231/ATCC
  TGI: 2.50 µM
  GI50: 1.17 µM
  LC50 (concentration killing 50% of cells): 5.34 µM
SK-MEL-2
  GP (growth percentage): −49.77%
MDA-MB-435
  GP (growth percentage): −83.74%
UACC-257
  GP (growth percentage): −89.19%
MALME-3M
  GP (growth percentage): −90.58%
SK-MEL-28 [3]
  GP (growth percentage): 8.93%
  inhibition at 10 µM: 91.1%
LOX IMVI [4]
  GP (growth percentage): −76.37%
SK-MEL-5
  GP (growth percentage): −98.64%
UACC-62
  GP (growth percentage): −43.31%

## CCOc1ccccc1NC1=C(Cl)C(=O)c2nc(C)ccc2C1=O [AQQ2]
LOX IMVI [1]
  TGI: 2.22 µM
  GI50: 0.839 µM
  LC50 (concentration killing 50% of cells): 5.33 µM
CCRF-CEM
  TGI: >100 µM
  GI50: 1.41 µM
  LC50 (concentration killing 50% of cells): > 100 µM
SK-OV-3
  TGI: 27.1 µM
  GI50: 13.5 µM
  LC50 (50% net cell kill): 54.2 µM
A549/ATCC
  TGI: 4.64 µM
  GI50: 2.06 µM
  CC50: 12.9 µM
HS 578T
  TGI: 5.25 µM
  GI50: 2.11 µM
  CC50: > 100 µM
HOP-62
  TGI: 6.74 µM
  GI50: 2.27 µM
  LC50 (concentration killing 50% of cells): 28.8 µM
SNB-75
  TGI: 3.43 µM
  GI50: 1.63 µM
  LC50 (50% lethal concentration): 7.21 µM
IGROV1
  TGI: 2.82 µM
  GI50: 1.37 µM
  LC50: 5.84 µM
TK-10
  TGI: 3.72 µM
  GI50: 2.25 µM
  LC50 (concentration killing 50% of starting cells): 6.18 µM
MCF7
  TGI: 3.65 µM
MCF7; Homo sapiens
  GI50: 1.33 µM
T-47D
  GP (growth percentage): −40.00%
MDA-MB-468
  GP (growth percentage): −90.72%
BT-549
  GP (growth percentage): 44.40%
KM12
  TGI: 2.89 µM
  GI50: 1.41 µM
  CC50: 5.92 µM
SR
  TGI: 4.14 µM
  GI50: 0.543 µM
  CC50: > 100 µM
NCI/ADR-RES
  TGI: 5.09 µM
  GI50: 1.89 µM
  CC50: > 100 µM
SW-620
  TGI: 3.21 µM
  GI50: 1.6 µM
  LC50: 6.41 µM
OVCAR-8
  TGI: 2.92 µM
  GI50: 1.49 µM
  CC50: 5.7 µM
RXF 393
  TGI: 2.78 µM
  GI50: 1.44 µM
  LC50: 5.39 µM
NCI-H460
  TGI: 11.4 µM
  GI50: 3.02 µM
  CC50: 45.4 µM
COLO 205
  TGI: 3.66 µM
  GI50: 1.73 µM
  CC50: 7.74 µM
HCC-2998
  TGI: 3.52 µM
  GI50: 1.94 µM
  LC50 (concentration killing 50% of cells): 6.39 µM
A498
  TGI: 10.8 µM
  GI50: 2.65 µM
  LC50: 34.8 µM
OVCAR-4
  TGI: 2.22 µM
  GI50: 1 µM
  LC50 (concentration killing 50% of cells): 4.91 µM
SN12C
  TGI: 3.04 µM
  GI50: 1.59 µM
  LC50 (concentration killing 50% of starting cells): 5.8 µM
SK-MEL-28 [2]
  TGI: 3.14 µM
  GI50: 1.71 µM
  LC50: 5.79 µM
MDA-MB-231/ATCC
  TGI: 2.38 µM
  GI50: 1.07 µM
  LC50 (concentration killing 50% of cells): 5.31 µM
SK-MEL-2
  GP (growth percentage): −15.72%
MDA-MB-435
  GP (growth percentage): −85.72%
UACC-257
  GP (growth percentage): −88.33%
MALME-3M
  GP (growth percentage): −71.39%
SK-MEL-28 [3]
  GP (growth percentage): 14.55%
  inhibition at 10 µM: 85.5%
LOX IMVI [4]
  GP (growth percentage): −82.20%
SK-MEL-5
  GP (growth percentage): −97.76%
UACC-62
  GP (growth percentage): −29.14%

Reference: PMC11200585, “Prospects for Prostate Cancer Chemotherapy: Cytotoxic Evaluation and Mechanistic Insights of Quinolinequinones with ADME/PK Profile” (Biomedicines, 2024)
